{
  "source": "patent US20170066717A1",
  "about": "“NEW PHENYLAZETIDINECARBOXYLATE OR -CARBOXAMIDE COMPOUNDS” (INVENTIVA, priority 2014, published 2017)",
  "key": {"NURR-1/RXRγ": {"molecular_target": "T1, NURR-1/RXRγ (Homo sapiens, UniProt P48443)", "T1 construct": "expressed in transfected cells; host or cells: Cos-7 cells", "T1 sequence (P48443 whole entry, the tested form may be a part)": "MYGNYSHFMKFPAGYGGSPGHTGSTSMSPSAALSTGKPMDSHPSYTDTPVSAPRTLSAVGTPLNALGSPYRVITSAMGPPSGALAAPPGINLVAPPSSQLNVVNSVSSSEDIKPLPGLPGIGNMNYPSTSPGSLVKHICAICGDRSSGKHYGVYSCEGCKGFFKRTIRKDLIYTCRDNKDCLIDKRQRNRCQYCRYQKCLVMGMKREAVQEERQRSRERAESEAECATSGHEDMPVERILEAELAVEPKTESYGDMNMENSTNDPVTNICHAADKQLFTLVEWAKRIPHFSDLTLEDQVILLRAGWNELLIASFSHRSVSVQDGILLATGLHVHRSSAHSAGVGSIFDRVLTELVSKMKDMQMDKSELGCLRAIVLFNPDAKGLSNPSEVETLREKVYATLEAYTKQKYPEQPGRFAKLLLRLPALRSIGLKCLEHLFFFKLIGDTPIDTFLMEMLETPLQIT", "T1 sequence (P43354 whole entry partner, the tested form may be a part)": "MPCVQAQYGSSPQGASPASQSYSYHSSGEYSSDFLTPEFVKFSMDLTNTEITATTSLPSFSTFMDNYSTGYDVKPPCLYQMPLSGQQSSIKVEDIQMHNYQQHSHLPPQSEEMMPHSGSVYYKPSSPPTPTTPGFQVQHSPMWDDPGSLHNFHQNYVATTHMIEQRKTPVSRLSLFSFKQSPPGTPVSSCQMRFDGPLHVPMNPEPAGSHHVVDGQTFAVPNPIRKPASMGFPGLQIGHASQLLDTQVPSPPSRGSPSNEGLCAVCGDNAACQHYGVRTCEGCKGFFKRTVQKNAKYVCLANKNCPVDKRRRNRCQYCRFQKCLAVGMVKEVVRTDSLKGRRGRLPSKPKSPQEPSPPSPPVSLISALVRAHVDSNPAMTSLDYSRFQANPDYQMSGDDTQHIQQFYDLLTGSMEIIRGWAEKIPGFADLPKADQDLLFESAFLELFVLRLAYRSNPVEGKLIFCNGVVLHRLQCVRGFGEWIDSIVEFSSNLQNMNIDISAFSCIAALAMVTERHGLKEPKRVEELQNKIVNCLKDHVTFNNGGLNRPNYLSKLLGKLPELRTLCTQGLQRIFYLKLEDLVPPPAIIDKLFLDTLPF", "T1 sequence (P04386 1-147 partner limits assumed)": "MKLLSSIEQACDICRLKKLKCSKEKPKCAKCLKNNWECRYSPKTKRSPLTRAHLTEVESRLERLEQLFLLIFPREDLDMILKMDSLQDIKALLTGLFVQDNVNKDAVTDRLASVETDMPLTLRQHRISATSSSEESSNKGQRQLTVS", "test": "Transactivation test, NURR-1-Gal4/RXRγ, luciferase reporter in Cos-7 cells", "type": "cell-based", "conditions": "for Emax: COS-7, induction level relative to reference XCT0135908 at 2×10^−5 M (=100%), read-out: hNurr1_RXRgFL Emax (%); for pEC50: Cos-7 cells, NURR-1-Gal4/RXRγ, luciferase reporter, read-out: hNurr1_RXRgFL EC50"}, "[1]": {"test": "Brain penetration in rats after intravenous administration", "type": "in vivo", "conditions": "rat; for Kp at 4 h: male, Wistar, intravenous, 4 mg/kg, ratio of Cmax brain to Cmax plasma after the 4 hours of infusion, rats, read-out: Kp (partition coefficient between the brain and the plasma); for Cmax at 4 h: male Wistar rats, 4 mg/kg iv infusion into the jugular vein for 4 hours, plasma at end of infusion", "in_short": "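Male Wistar rats (250-300 g, fed, n=4) received test compound by 4-hour jugular vein infusion at 4 mg/kg in 2% Cremophor EL/0.9% NaCl. At the end of infusion, plasma and brain homogenate were analysed by LC-MS/MS; Kp is the brain-to-plasma concentration ratio after 4 hours.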"}},
  "note": "pEC50: −log10 of the molar value.",
  "data": [
    {"smiles": "CC1(C)CCC(C)(C)c2cc(-c3cccc(N4CC(C(=O)O)C4)c3)ccc21", "note": "[Example 10, 1-[5-(1,1,4,4-tetrametyltetralin-6-yl)phenyl]azetidine-3-carboxylic acid]", "values": [
      {"measurement": "Emax", "setting": "NURR-1/RXRγ", "value": 85, "unit": "%"},
      {"measurement": "pEC50", "setting": "NURR-1/RXRγ", "value": 7.62},
      {"measurement": "Kp at 4 h", "setting": "[1]", "value": 1.28},
      {"measurement": "Cmax at 4 h", "setting": "[1]", "value": 4300, "unit": "ng/mL"}
    ]},
    {"smiles": "CC(C)CC1CN(c2cccc(N3CC(C(=O)O)C3)c2)c2ccc(C(F)(F)F)cc2O1", "note": "(centres unmarked) [Example 118, 1-[3-[2-isobutyl-7-(trilfuoromethyl)-2,3-dihydro-1,4-benzoxazin-4-yl]phenyl]azetidine-3-carboxylic acid]", "values": [
      {"measurement": "Emax", "setting": "NURR-1/RXRγ", "value": 80, "unit": "%"},
      {"measurement": "pEC50", "setting": "NURR-1/RXRγ", "value": 7.33},
      {"measurement": "Kp at 4 h", "setting": "[1]", "value": 0.35},
      {"measurement": "Cmax at 4 h", "setting": "[1]", "value": 3480, "unit": "ng/mL"}
    ]}
  ]
}
